# Like-named read-outs stand apart in the source and are kept apart here. Numbered stars: 1 amine (or outer) side, 2 acyl side, 3 side chain; on linkers, the order of the positions; unused ones are H or OH. Bridge positions count the residues as written; N and C are the ends. Side chains are listed from the residue outwards. Peptide text beside a SMILES is read from it. * marks the point of attachment. C20 diacid = O=C(O)CCCCCCCCCCCCCCCCCCC(=O)*; γGlu = O=C(O)[C@H](CCC(=O)[*:2])N[*:1]
# Assay: ASSAY (IV) determination of solubility
# Format: physicochemical
# Summary of the method: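 Dissolve polypeptide in water ([…] stock); combine 1:1 with each 100 mM buffer (glycylglycine pH 3.0/4.0/5.0; bistrispropane pH 6.0/6.5/7.0/7.5/8.0); hold 18 hours at room temperature; centrifuge; quantify polypeptide by UPLC.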
# [1] = bistrispropane buffer, pH 6.5, read-out: Solubility pH 6.5 Concentration
# [2] = bistrispropane buffer, pH 7.5, read-out: Solubility pH 7.5 Concentration
# [3] = bistrispropane buffer, pH 6.0, read-out: Solubility pH 6.0 Concentration
# [4] = bistrispropane buffer, pH 7.0, read-out: Solubility pH 7.0 Concentration
# [5] = bistrispropane buffer, pH 8.0, read-out: Solubility pH 8.0 Concentration
# [6] = glycylglycine buffer, pH 3.0, read-out: Solubility pH 3.0 Concentration
# [7] = glycylglycine buffer, pH 4.0, read-out: Solubility pH 4.0 Concentration
# [8] = glycylglycine buffer, pH 5.0, read-out: Solubility pH 5.0 Concentration
solubility at 18 h [1] [µM],solubility at 18 h [2] [µM],solubility at 18 h [3] [µM],solubility at 18 h [4] [µM],solubility at 18 h [5] [µM],solubility at 18 h [6] [µM],solubility at 18 h [7] [µM],solubility at 18 h [8] [µM],Structure (SMILES)
≥ 200,≥ 200,≥ 200,≥ 200,≥ 200,≥ 200,≥ 200,≥ 200,CC[C@H](C)[C@H](NC(=O)[C@H](C)NC(=O)CNC(=O)[C@H](Cc1ccccc1)NC(=O)[C@H](CC(N)=O)NC(=O)[C@@H]1CCCN1C(=O)[C@H](CO)NC(=O)[C@H](CO)NC(=O)[C@H](Cc1c[nH]cn1)NC(=O)[C@H](CCCNC(=N)N)NC(=O)[C@H](CC(C)C)NC(=O)[C@H](Cc1ccccc1)NC(=O)[C@H](CCC(=O)O)NC(=O)[C@H](C)NC(=O)[C@H](CC(C)C)NC(=O)[C@H](CCCNC(=N)N)NC(=O)[C@H](CCC(N)=O)NC(=O)[C@@H](NC(=O)[C@H](C)NC(=O)[C@@H]1CSSC[C@H](NC(=O)[C@@H](N)CCCCNC(=O)CC[C@H](NC(=O)CC[C@H](NC(=O)CCCCCCCCCCCCCCCCCCC(=O)O)C(=O)O)C(=O)O)C(=O)N[C@@H](CC(N)=O)C(=O)N[C@@H]([C@@H](C)O)C(=O)N[C@@H](C)C(=O)N[C@@H]([C@@H](C)O)C(=O)N1)[C@@H](C)O)C(=O)N1CCC[C@H]1C(=O)N[C@@H](CO)C(=O)N[C@@H](CO)C(=O)N[C@H](C(=O)N[C@@H](CC(N)=O)C(=O)N[C@H](C(=O)NCC(=O)N[C@@H](Cc1c[nH]cn1)C(=O)N[C@@H](CCC(=O)O)C(=O)N[C@H](C(=O)N[C@@H](Cc1ccc(O)cc1)C(N)=O)[C@@H](C)O)C(C)C)[C@@H](C)O [Example 104] (H-K([γGlu-γGlu-C20 diacid])CNTATCATQRLAEFLRHSSPNFGAIPSSTNVGHETY-NH2; disulfide 2-7; N-terminus assumed)
≥ 200,≥ 200,≥ 200,≥ 200,165,≥ 200,≥ 200,≥ 200,CC[C@H](C)[C@H](NC(=O)[C@H](C)NC(=O)CNC(=O)[C@H](Cc1ccccc1)NC(=O)[C@H](CC(N)=O)NC(=O)[C@@H]1CCCN1C(=O)[C@H](CO)NC(=O)[C@H](CO)NC(=O)[C@H](Cc1c[nH]cn1)NC(=O)[C@H](CCCNC(=N)N)NC(=O)[C@H](CC(C)C)NC(=O)[C@H](Cc1ccccc1)NC(=O)[C@H](CC(N)=O)NC(=O)[C@H](C)NC(=O)[C@H](CC(C)C)NC(=O)[C@H](CCCNC(=N)N)NC(=O)[C@H](CCC(N)=O)NC(=O)[C@@H](NC(=O)[C@H](C)NC(=O)[C@@H]1CSSC[C@H](NC(=O)[C@@H](N)CCCCNC(=O)CC[C@H](NC(=O)CCCCCCCCCCCCCCC(=O)O)C(=O)O)C(=O)N[C@@H](CC(N)=O)C(=O)N[C@@H]([C@@H](C)O)C(=O)N[C@@H](C)C(=O)N[C@@H]([C@@H](C)O)C(=O)N1)[C@@H](C)O)C(=O)N1CCC[C@H]1C(=O)N[C@@H](CO)C(=O)N[C@@H](CO)C(=O)N[C@H](C(=O)N[C@@H](CC(N)=O)C(=O)N[C@H](C(=O)NCC(=O)N[C@@H](Cc1c[nH]cn1)C(=O)N[C@@H](CC(N)=O)C(=O)N[C@H](C(=O)N[C@@H](Cc1ccc(O)cc1)C(N)=O)[C@@H](C)O)C(C)C)[C@@H](C)O [Example 111]

# Source: patent US9023789B2, “Amylin analogs and pharmaceutical compositions thereof” (Novo Nordisk A/S, priority 2012, dated 2015)
